Test results from the NIST ThermoML archive (doi:10.1016/j.fluid.2006.11.005).

What was measured:
[1] = 101.33 kPa, Liquid
[2] = xn = mol fraction of the nth substance listed; details: 101.33 kPa, Liquid

c1ccccc1 [benzene]
[1]
Details	mass density [kg/m3]
288.15 K	884.246
293.15 K	878.918
298.15 K	873.582
303.15 K	868.233
308.15 K	862.871
313.15 K	857.498

c1ccccc1 [benzene] + ClC(Cl)Cl
[2], x2 = 0
Details	mass density [kg/m3]
288.15 K	884.246
293.15 K	878.918
298.15 K	873.582
303.15 K	868.233
308.15 K	862.871
313.15 K	857.498

CCO [ethanol]
[1]
Details	mass density [kg/m3]
288.15 K	793.721
293.15 K	789.454
298.15 K	785.164
303.15 K	780.853
308.15 K	776.51
313.15 K	772.138

CCO [ethanol] + ClC(Cl)Cl
[2], x1 = 1
Details	mass density [kg/m3]
288.15 K	793.721
293.15 K	789.454
298.15 K	785.164
303.15 K	780.853
308.15 K	776.51
313.15 K	772.138

ClC(Cl)Cl [trichloromethane]
[1]
Details	mass density [kg/m3]
288.15 K	1498.08
293.15 K	1488.64
298.15 K	1479.15
303.15 K	1469.61
308.15 K	1460.03
313.15 K	1450.41

ClC(Cl)Cl [trichloromethane] + c1ccccc1
mass density [kg/m3], [2]
Details	288.15 K	293.15 K	298.15 K	303.15 K	308.15 K	313.15 K
x1 = 0.1001	939.224	933.584	927.935	922.271	916.586	910.883
x1 = 0.2	995.529	989.568	983.589	977.59	971.567	965.527
x1 = 0.3072	1057.3	1050.96	1044.61	1038.23	1031.82	1025.38
x1 = 0.3995	1111.96	1105.29	1098.58	1091.85	1085.08	1078.27
x1 = 0.4997	1172.45	1165.38	1158.28	1151.15	1143.98	1136.78
x1 = 0.6	1234.48	1226.99	1219.47	1211.92	1204.33	1196.74
x1 = 0.6652	1275.68	1267.9	1260.09	1252.24	1244.34	1236.41
x1 = 0.7991	1362.32	1353.91	1345.46	1336.97	1328.42	1319.82
x1 = 0.8009	1363.45	1355.03	1346.58	1338.09	1329.56	1321.04
x1 = 0.9	1429.59	1420.68	1411.71	1402.7	1393.63	1384.52
x1 = 1	1498.08	1488.64	1479.15	1469.61	1460.03	1450.41
